Results taken from patent US9695155B2, “Herbicidal substituted pyrimidinyloxy benzene compounds” (E. I. DU PONT DE NEMOURS AND COMPANY, priority 2013, dated 2017).

Experiments:
Assay in all cases: Test E postemergence
[1] = test system: corn; assay type: in vivo, Zea mays
From the text: (§1) Seeds of plant species selected from corn (Zea mays), soybean (Glycine max), velvetleaf (Abutilon theophrasti), lambsquarters (Chenopodium album), wild poinsettia (Euphorbia heterophylla), palmer pigweed (Amaranthus palmeri), waterhemp (common waterhemp, Amaranthus rudis), surinam grass (Brachiaria decumbens), large (Lg) crabgrass (Digitaria sanguinalis), Brazilian crabgrass (Digitaria horizontalis), fall panicum (Panicum dichotomiflorum), giant foxtail (Setaria faberii), green foxtail (Setaria viridis), goosegrass (Eleusine indica), johnsongrass (Sorghum halepense), ragweed (common ragweed, Ambrosia elatior), barnyardgrass (Echinochloa crus-galli), sandbur (southern sandbur, Cenchrus echinatus), arrowleaf sida (Sida rhombifolia), Italian ryegrass (Lolium multiflorum), dayflower (Virginia (VA) dayflower, Commelina virginica), field bindweed (Convolvulus arvensis), morningglory (Ipomoea coccinea), nightshade (eastern black nightshade, Solanum ptycanthum), kochia (Kochia scoparia), yellow nutsedge (Cyperus esculentus), cocklebur (common cocklebur, Xanthium strumarium), smartweed (ladysthumb smartweed, and hairy beggarticks (Bidens pilosa), were planted into a silt loam soil and treated preemergence with test chemicals formulated in a non-phytotoxic solvent mixture which included a surfactant.
(§2) At the same time, plants from these crop and weed species and also horseweed (Canada horseweed, Conyza canadensis), waterhemp_RES1, (ALS & Triazine resistant common waterhemp, Amaranthus rudis), and waterhemp_RES2, (ALS & HPPD resistant common waterhemp, Amaranthus rudis) were planted in pots containing Redi-Earth® planting medium (Scotts Company, 14111 Scottslawn Road, Marysville, Ohio 43041) comprising spaghnum peat moss, vermiculite, wetting agent and starter nutrients were treated with postemergence applications of test chemicals formulated in the same manner. Plants ranged in height from 2 to 18 cm for postemergence treatments (1- to 4-leaf stage). Treated plants and controls were maintained in a greenhouse for 14 to 21 days, after which time all species were compared to controls and visually evaluated. Plant response ratings, summarized in Table E, are based on a scale of 0 to 100 where 0 is no effect and 100 is complete control. A dash (-) response means no test result.

[2] = test system: waterhemp; assay type: in vivo, Amaranthus rudis
In short: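 Compound in a non-phytotoxic solvent mixture with surfactant was applied preemergence to seeds in silt loam soil, or postemergence to plants 2 to 18 cm tall grown in peat-based potting medium. Plants were kept in a greenhouse for 14 to 21 days, then rated visually against untreated controls on a 0 (no effect) to 100 (complete control) scale.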

[3] = test system: Brazilian crabgrass; assay type: in vivo, Digitaria horizontalis
From the text: as §1, §2

[4] = test system: field bindweed; assay type: in vivo, Convolvulus arvensis
From the text: as §1, §2

[5] = test system: hairy beggarticks; assay type: in vivo, Bidens pilosa
From the text: as §1, §2

[6] = Postemergence, 31 g ai/ha, scale 0 to 100
[7] = Postemergence, 62 g ai/ha, scale 0 to 100
[8] = Postemergence, 125 g ai/ha, scale 0 to 100
[9] = Postemergence, 250 g ai/ha, scale 0 to 100
[10] = postemergence, 16 g ai/ha, scale 0 to 100, 0 no effect, 100 complete control
[11] = postemergence, 8 g ai/ha, scale 0 to 100, 0 no effect, 100 complete control

SMILES: Fc1cnc(Oc2ccccc2-n2cc(Br)cn2)nc1 [Compound 10, 2-[2-(4-bromo-1H-pyrazol-1-yl)phenoxy]-5-fluoropyrimidine]
- corn plant response (injury) rating, 0-100 at 31 g/ha ([1]; Zea mays, post-emergence, Postemergence, 31 g ai/ha, scale 0 to 100): 0%
- corn plant response (injury) rating, 0-100 at 62 g/ha ([1]; Zea mays, post-emergence, Postemergence, 62 g ai/ha, scale 0 to 100): 0%
- corn plant response (injury) rating, 0-100 at 125 g/ha ([1]; Zea mays, post-emergence, Postemergence, 125 g ai/ha, scale 0 to 100): 0%
- corn plant response (injury) rating, 0-100 at 250 g/ha ([1]; Zea mays, post-emergence, Postemergence, 250 g ai/ha, scale 0 to 100): 0%
- corn plant response (injury) rating, 0-100 at 16 g/ha ([1]; Zea mays, post-emergence, postemergence, 16 g ai/ha, scale 0 to 100, 0 no effect, 100 complete control): 0%
- pest or weed control at 31 g/ha ([2]; Amaranthus tuberculatus, post-emergence, Postemergence, 31 g ai/ha, scale 0 to 100, read-out: Plant response rating, Waterhemp): 80%
- pest or weed control at 62 g/ha ([2]; Amaranthus tuberculatus, post-emergence, Postemergence, 62 g ai/ha, scale 0 to 100, read-out: Plant response rating, Waterhemp): 85%
- pest or weed control at 125 g/ha ([2]; Amaranthus tuberculatus, post-emergence, Postemergence, 125 g ai/ha, scale 0 to 100, read-out: Plant response rating, Waterhemp): 95%
- pest or weed control at 250 g/ha ([2]; Amaranthus tuberculatus, post-emergence, Postemergence, 250 g ai/ha, scale 0 to 100, read-out: Plant response rating, Waterhemp): 95%
- pest or weed control at 31 g/ha ([3]; Digitaria horizontalis, post-emergence, Postemergence, 31 g ai/ha, scale 0 to 100, read-out: Plant response rating, Crabgrass, Brazil): 0%
- pest or weed control at 62 g/ha ([3]; Digitaria horizontalis, post-emergence, Postemergence, 62 g ai/ha, scale 0 to 100, read-out: Plant response rating, Crabgrass, Brazil): 0%
- pest or weed control at 125 g/ha ([3]; Digitaria horizontalis, post-emergence, Postemergence, 125 g ai/ha, scale 0 to 100, read-out: Plant response rating, Crabgrass, Brazil): 0%
- pest or weed control at 250 g/ha ([3]; Digitaria horizontalis, post-emergence, Postemergence, 250 g ai/ha, scale 0 to 100, read-out: Plant response rating, Crabgrass, Brazil): 5%
- pest or weed control at 16 g/ha ([3]; Digitaria horizontalis, post-emergence, postemergence, 16 g ai/ha, scale 0 to 100, 0 no effect, 100 complete control, read-out: Plant response rating, Crabgrass, Brazil): 0%
- pest or weed control at 31 g/ha ([4]; Convolvulus arvensis, post-emergence, Postemergence, 31 g ai/ha, scale 0 to 100, read-out: Plant response rating, Field Bindweed): 30%
- pest or weed control at 62 g/ha ([4]; Convolvulus arvensis, post-emergence, Postemergence, 62 g ai/ha, scale 0 to 100, read-out: Plant response rating, Field Bindweed): 30%
- pest or weed control at 125 g/ha ([4]; Convolvulus arvensis, post-emergence, Postemergence, 125 g ai/ha, scale 0 to 100, read-out: Plant response rating, Field Bindweed): 40%
- pest or weed control at 250 g/ha ([4]; Convolvulus arvensis, post-emergence, Postemergence, 250 g ai/ha, scale 0 to 100, read-out: Plant response rating, Field Bindweed): 50%
- pest or weed control at 16 g/ha ([4]; Convolvulus arvensis, post-emergence, postemergence, 16 g ai/ha, scale 0 to 100, 0 no effect, 100 complete control, read-out: Plant response rating, Field Bindweed): 15%
- pest or weed control at 31 g/ha ([5]; Bidens pilosa, post-emergence, Postemergence, 31 g ai/ha, scale 0 to 100, read-out: Plant response rating, Beggarticks): 30%
- pest or weed control at 62 g/ha ([5]; Bidens pilosa, post-emergence, Postemergence, 62 g ai/ha, scale 0 to 100, read-out: Plant response rating, Beggarticks): 40%
- pest or weed control at 125 g/ha ([5]; Bidens pilosa, post-emergence, Postemergence, 125 g ai/ha, scale 0 to 100, read-out: Plant response rating, Beggarticks): 50%
- pest or weed control at 250 g/ha ([5]; Bidens pilosa, post-emergence, Postemergence, 250 g ai/ha, scale 0 to 100, read-out: Plant response rating, Beggarticks): 80%
- pest or weed control at 16 g/ha ([5]; Bidens pilosa, post-emergence, postemergence, 16 g ai/ha, scale 0 to 100, 0 no effect, 100 complete control, read-out: Plant response rating, Beggarticks): 10%

SMILES: FC(F)(F)c1cnn(-c2ccccc2Oc2ncc(Cl)cn2)c1 [Compound 16]
- Plant response rating, Corn [1, 6]: 0
- Plant response rating, Corn [1, 7]: 0
- Plant response rating, Corn [1, 8]: 10
- Plant response rating, Corn [1, 9]: 15
- Plant response rating, Corn [1, 10]: 0
- Plant response rating, Waterhemp [2, 6]: 60
- Plant response rating, Waterhemp [2, 7]: 85
- Plant response rating, Waterhemp [2, 8]: 90
- Plant response rating, Waterhemp [2, 9]: 90
- Plant response rating, Waterhemp [2, 10]: 60
- Plant response rating, Crabgrass, Brazil [3, 6]: 0
- Plant response rating, Crabgrass, Brazil [3, 7]: 10
- Plant response rating, Crabgrass, Brazil [3, 8]: 30
- Plant response rating, Crabgrass, Brazil [3, 9]: 40
- Plant response rating, Crabgrass, Brazil [3, 10]: 0
- Plant response rating, Field Bindweed [4, 6]: 30
- Plant response rating, Field Bindweed [4, 7]: 40
- Plant response rating, Field Bindweed [4, 8]: 50
- Plant response rating, Field Bindweed [4, 9]: 60
- Plant response rating, Field Bindweed [4, 10]: 10
- Plant response rating, Beggarticks [5, 6]: 30
- Plant response rating, Beggarticks [5, 7]: 50
- Plant response rating, Beggarticks [5, 8]: 50
- Plant response rating, Beggarticks [5, 9]: 60
- Plant response rating, Beggarticks [5, 10]: 30

SMILES: Clc1cnc(Oc2cccc(Br)c2-n2cc(Br)cn2)nc1 [Compound 65]
- Plant response rating, Corn [1, 6]: 10
- Plant response rating, Corn [1, 7]: 10
- Plant response rating, Corn [1, 8]: 10
- Plant response rating, Corn [1, 11]: 0
- Plant response rating, Corn [1, 10]: 0
- Plant response rating, Waterhemp [2, 6]: 70
- Plant response rating, Waterhemp [2, 7]: 75
- Plant response rating, Waterhemp [2, 8]: 95
- Plant response rating, Waterhemp [2, 11]: 60
- Plant response rating, Waterhemp [2, 10]: 50
- Plant response rating, Crabgrass, Brazil [3, 6]: 10
- Plant response rating, Crabgrass, Brazil [3, 7]: 10
- Plant response rating, Crabgrass, Brazil [3, 8]: 15
- Plant response rating, Crabgrass, Brazil [3, 11]: 0
- Plant response rating, Crabgrass, Brazil [3, 10]: 0
- Plant response rating, Field Bindweed [4, 6]: 20
- Plant response rating, Field Bindweed [4, 7]: 40
- Plant response rating, Field Bindweed [4, 8]: 40
- Plant response rating, Field Bindweed [4, 11]: 0
- Plant response rating, Field Bindweed [4, 10]: 10
- Plant response rating, Beggarticks [5, 6]: 40
- Plant response rating, Beggarticks [5, 7]: 50
- Plant response rating, Beggarticks [5, 8]: 50
- Plant response rating, Beggarticks [5, 11]: 20
- Plant response rating, Beggarticks [5, 10]: 35
